According to patent publication US8828925B2, “Etoposide and doxorubicin conjugates for drug delivery” (Angiochem Inc., priority 2008, dated 2014):
pIC50: −log10 of the molar value. Read-outs that look alike come from different tables or passages of the source.

Assays:
mouse brain [1] = details: in vivo
Procedure: (§1) The uptake of [^125I]-polypeptides to the luminal side of mouse brain capillaries was measured using the in situ brain perfusion method adapted in our laboratory for the study of agent uptake in the mouse brain.
(§2) Polypeptides were iodinated with standard procedures using iodo-beads from Sigma. Briefly polypeptides were diluted in 0.1 M phosphate buffer, pH 6.5 (PB). Two iodo-beads were used for each protein. These beads were washed twice with 3 mL of PB on a Whatman filter and re-suspended in 60 of PB. ^125I (1 mCi) from Amersham-Pharmacia biotech was added to the bead suspension for 5 min at room temperature. Each iodination was initiated by the addition of the polypeptide (100 μg). After an incubation of 10 min at room temperature, the free iodine was removed by HPLC.
(§3) Briefly, the right common carotid of ketamine/xylazine (140/8 mg/kg i.p.) anesthetized mice was exposed and ligated at the level of the bifurcation of the common carotid, rostral to the occipital artery. The common carotid was then catheterized rostrally with polyethylene tubing filled with heparin (25 U/mL) and mounted on a 26-gauge needle. The syringe containing the perfusion fluid ([^125I]-polypeptides or [^14C]-inulin in Krebs/bicarbonate buffer at a pH7.4 gassed with 95% O2 and 5% CO2) was placed in an infusion pump (Harvard pump PHD 2000; Harvard Apparatus) and connected to the catheter. Prior to the perfusion, the contralateral blood flow contribution was eliminated by severing heart ventricles. The brain was perfused for the indicated times at a flow rate of 1.15 mL/min. After 14.5 min of perfusion, the brain was further perfused for 60 seconds with Krebs buffer to wash the excess of [^125I]-proteins. Mice were then decapitated to terminate perfusion and the right hemisphere was isolated on ice before being subjected to capillary depletion. Aliquots of homogenates, supernatants, pellets and perfusates were taken to measure their contents in [^125I]-conjugates by TCA precipitation and to evaluate the apparent volume of distribution.

SK-HEP-1 cells [2] = assay: in vitro cell proliferation assay ([3H]-thymidine incorporation), SK-HEP-1
Procedure: (§4) For the in vitro cell proliferation assay, between 2.5 and 5×10^4 of U87 or SK-HEP-1 cells were seeded in a 24 well tissue culture microplate in a final volume of 1 mL of medium with 10% serum and incubated for 24 hours at 37° C. and 5% CO2. The medium was then replaced with serum-free medium and incubated overnight. The next morning the agent was freshly dissolved in dimethyl sulfoxide (DMSO) and the medium was replaced with complete medium containing the agent at different concentrations in triplicate. The final concentration of DMSO was 0.1%. The control used was a microplate well with cells and without agent. The cells were incubated for 48 to 72 hrs at 37° C. and 5% CO2. After the incubation, the medium was changed and replaced with 1 mL of complete medium containing [^3H]-thymidine (1 pCi/assay). The plate was incubated at 37° C. and 5% CO2 for 4 hrs. The medium as removed, and the cells were washed with PBS at 37° C. The cells were fixed with a mix of ethanol:acetic acid (3:1), washed with water, and precipitated 3 times with 10% of ice-cold TCA (trichloroacetic acid). Finally 500 μL of PCA (perchloric acid) were added to the wells and the microplates were heated for 30 min at 65° C. and 30 min at 75° C. The contents of each well were then transferred to a scintillation vial with 10 mL of scintillation cocktail and the activity was measured in CPM (count per minute) on a liquid scintillation counter Tri-Carb from Packard.

[3] = test system: Lung Carcinoma (NCI-H460); assay: in vitro cell proliferation assay, NCI-H460; assay type: cell-based; details: Table 5
[4] = test system: U87 cells in nude mice brain; assay: intracerebral human brain tumor model (U87), survival; assay type: in vivo; details: doxorubicin 6 mg/kg, (DoxSu)3-An2 40 mg/kg i.v. 1× per week
Procedure: The intracerebral human brain tumor model was established by stereotactic inoculation of 5×10^5 U87 cells in nude mice brain. Female athymic nude mice (Crl:Nu/Nu-nuBR; 20-25 g, 4-6 weeks old; Charles River Canada, St-Constant, QC) were used for tumor models and were maintained in a pathogen-free environment. One hour before surgery, mice received a subcutaneous injection of buprenorphine (0.1 mg kg^−1). For tumor cell inoculation, mice were anesthetized by i.p. injection of ketamine/xylazine (120/10 mg kg^−1) and placed in a stereotactic apparatus (Kopf; Tujunga, Calif.). A burr hole was drilled 1.5 mm anterior and 2.5 mm lateral to the bregma. The cell suspension in 5 μL of serum free cell culture medium was injected over a 5 minute period using a Hamilton syringe at a depth of 3.5 mm.
Drug treatment started 3 days post-inoculation (Table 8). […] Drug solutions were prepared in dextrose 5% water (D5W). Injection solutions were freshly prepared before each administration. Clinical signs of disease progression and body weights were monitored everyday. When mice reached terminal endpoints (20% of decrease in body weight), they were sacrificed by carbon dioxide asphyxiation.

U87 cells = assay: in vitro cell proliferation assay ([3H]-thymidine incorporation), U87; assay type: cell-based, human
Procedure: as §4

[5] = tissue distribution after IV bolus; assay type: in vivo; details: thirty minutes after IV bolus, mice, FIG. 12
Procedure: The effect of conjugation of an agent to a vector on distribution of the agent or the pharmacokinetics of a polypeptide that is conjugated to an agent was evaluated by administering a labeled polypeptide or conjugate to an animal and measuring distribution of the polypeptide or conjugate to organs (e.g., using ^3H or ^125I labeled conjugates) to mice. Similar experiments can be performed with compounds that include any of polypeptides described herein (e.g., the polypeptides described in Table 1 such as AngioPep-3, AngioPep-4a, AngioPep-4b, AngioPep-5, AngioPep-6, and AngioPep-7, or analogs thereof). Here, the unconjugated anticancer agent and the conjugates were injected intravenously to mice as a bolus. Tissues were collected at different times (0.25, 0.5, 1, and 4 hrs) and homogenized. To quantify the amount of ^3H-labeled conjugate, tissue homogenates were digested with tissue solubilizer, and 10 mL of liquid scintillator was added to samples. The amount of the ^125I labeled conjugate, in the different tissues is measured after TCA precipitation. Radioactivity associated with the tissues is quantified. The area under the curve (AUC 0-4) is estimated using the Prism software and is plotted for the different tissues.
FIG. 11 compares the brain distribution of Etop-An2(3:1) versus unconjugated etoposide thirty minutes after IV bolus administration to mice.

[6] = plasma kinetics after bolus administration; assay type: in vivo, CD-1 mice; details: IV bolus, 20 mg/kg, mice
Procedure: FIG. 8 describes the plasma kinetics of Etop-An2(3:1) following administration as a bolus. Radiolabeled (^125I) Etop-An2 (20 mg/kg) was injected in bolus by intravenous (i.v.) or intraperitoneal (i.p.) routes in CD-1 mice weighing about 25-30 g. The injection solution was composed of 12.5% dimethylsulfoxide (DMSO), 12.5% anhydrous ethanol 25% polyethylene glycol 400 (PEG400) and 50% NaCl/Glycine buffer. At several time intervals (0.5, 1, 2, and 6 hours) the blood was collected by cardiac puncture and animals were sacrificed. After blood centrifugation, the plasma radioactivity was measured in a gamma counter (Wizard 1470 Automatic Gamma Counter). The radioactivity was interpreted as % of injected dose per gram of plasma. Results were plotted using GraphPad prism software and the area under the curve (AUC) for each injection mode was calculated. The bioavailability of intraperitoneal Etop-An2 conjugate was then estimated by dividing the AUC after i.p. injection by the AUC after i.v. injection.

SK-HEP-1 cells [7] = test system: SK-HEP-1 cells
Procedure: as §4

P-gp = P-gp (Mus musculus, UniProt P21447)
Procedure: as §1
Briefly, the right common carotid of ketamine/xylazine (140/8 mg/kg i.p.) anesthetized mice was exposed and ligated at the level of the bifurcation of the common carotid, rostral to the occipital artery. The common carotid was then catheterized rostrally with polyethylene tubing filled with heparin (25 U/mL) and mounted on a 26-gauge needle. The syringe containing the perfusion fluid ([^125I]-polypeptides or [^14C]-inulin in Krebs/bicarbonate buffer at a pH7.4 gassed with 95% O2 and 5% CO2) was placed in an infusion pump (Harvard pump PHD 2000; Harvard Apparatus) and connected to the catheter. Prior to the perfusion, the contralateral blood flow contribution was eliminated by severing heart ventricles. The brain was perfused for the indicated times at a flow rate of 1.15 mL/min. After 14.5 min of perfusion, the brain was further perfused for 60 seconds with Krebs buffer to wash the excess of [^125I]-proteins. Mice were then decapitated to terminate perfusion and the right hemisphere was isolated on ice before being subjected to capillary depletion. […]

mouse brain [8] = assay: in situ brain perfusion (brain uptake)
Procedure: as §1, §2, §3

[9] = literature data (Reddy et al. 2005); cited from earlier work
[10] = Homo sapiens, SK-HEP1, read-out: IC50 (nM) Hepatocarcinoma (SK-Hep-1)
[11] = Homo sapiens, U-87 MG, Table 5, incubation 48 to 72 hrs, read-out: IC50 (nM) Glioblastoma (U87)

P-gp, sequence (P21447 whole entry, the tested form may be a part): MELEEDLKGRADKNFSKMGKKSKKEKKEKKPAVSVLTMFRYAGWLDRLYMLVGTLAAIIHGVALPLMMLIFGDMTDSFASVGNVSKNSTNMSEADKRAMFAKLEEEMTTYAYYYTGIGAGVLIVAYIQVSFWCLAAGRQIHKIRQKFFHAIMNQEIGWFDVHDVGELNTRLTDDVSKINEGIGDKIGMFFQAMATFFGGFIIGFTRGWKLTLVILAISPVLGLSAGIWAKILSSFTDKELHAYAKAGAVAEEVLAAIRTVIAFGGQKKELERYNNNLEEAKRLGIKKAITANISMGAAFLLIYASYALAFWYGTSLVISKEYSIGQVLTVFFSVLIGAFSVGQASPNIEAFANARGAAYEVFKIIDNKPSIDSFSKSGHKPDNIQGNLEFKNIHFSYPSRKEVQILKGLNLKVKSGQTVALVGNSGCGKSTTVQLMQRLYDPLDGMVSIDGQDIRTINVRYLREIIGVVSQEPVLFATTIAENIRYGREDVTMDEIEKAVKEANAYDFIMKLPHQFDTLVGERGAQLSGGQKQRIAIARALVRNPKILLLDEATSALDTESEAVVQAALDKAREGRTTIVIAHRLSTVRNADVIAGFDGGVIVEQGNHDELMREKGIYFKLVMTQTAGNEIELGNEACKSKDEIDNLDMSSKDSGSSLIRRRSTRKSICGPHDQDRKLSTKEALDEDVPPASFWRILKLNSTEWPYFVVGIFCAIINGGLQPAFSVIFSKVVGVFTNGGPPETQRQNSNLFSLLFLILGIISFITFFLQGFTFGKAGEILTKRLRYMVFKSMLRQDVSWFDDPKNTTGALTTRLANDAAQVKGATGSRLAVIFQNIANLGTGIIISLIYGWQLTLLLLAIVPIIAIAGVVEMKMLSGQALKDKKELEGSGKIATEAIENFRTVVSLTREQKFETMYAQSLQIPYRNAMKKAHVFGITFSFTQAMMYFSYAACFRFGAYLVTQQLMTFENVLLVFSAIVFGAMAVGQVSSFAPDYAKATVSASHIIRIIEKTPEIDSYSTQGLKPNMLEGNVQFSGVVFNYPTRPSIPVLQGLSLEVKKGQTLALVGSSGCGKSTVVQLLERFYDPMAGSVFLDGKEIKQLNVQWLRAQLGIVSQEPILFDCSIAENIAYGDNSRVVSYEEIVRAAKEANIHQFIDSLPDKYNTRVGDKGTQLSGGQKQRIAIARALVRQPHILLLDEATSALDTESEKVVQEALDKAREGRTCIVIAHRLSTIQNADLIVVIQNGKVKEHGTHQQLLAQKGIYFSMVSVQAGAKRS

Question: What does the source list for `COc1cccc2c1C(=O)c1c(O)c3c(c(O)c1C2=O)C[C@@](O)(C(=O)CO)C[C@@H]3O[C@H]1C[C@H](N)[C@H](O)[C@H](C)O1` [Doxorubicin, doxorubicin]?
Answer: Brain Kin (mouse brain [1]; pH 7.4): 0.00028 mL/s/g; IC50 (SK-HEP-1 cells [2]; [10]): 10 nM; IC50 ([3]; Homo sapiens, NCI-H460): 11 nM; Survival (days) Mean Trial 1 ([4]; Trial 1): 20.6 days; Survival (days) Median Trial 1 ([4]; Trial 1, treatment from 3 days post-inoculation): 21 days; Survival (days) Median Trial 2 ([4]; Trial 2): 23 days; IC50 (U87 cells; [11]): 18 nM

Question: Which results are given for `COc1cc([C@@H]2c3cc4c(cc3[C@@H](O[C@@H]3O[C@@H]5CO[C@@H](C)O[C@H]5[C@H](O)[C@H]3OC(=O)CCCC(=O)NCCCC[C@H](NC(=O)CNC(=O)[C@H](CCCNC(=N)N)NC(=O)[C@H](CO)NC(=O)CNC(=O)CNC(=O)[C@H](Cc3ccc(O)cc3)NC(=O)[C@H](Cc3ccccc3)NC(=O)[C@H](Cc3ccccc3)NC(=O)[C@@H](NC(=O)CCCC(=O)O[C@H]3[C@H](O[C@@H]5c6cc7c(cc6[C@@H](c6cc(OC)c(O)c(OC)c6)[C@H]6C(=O)OC[C@@H]65)OCO7)O[C@@H]5CO[C@@H](C)O[C@H]5[C@@H]3O)[C@@H](C)O)C(=O)N[C@@H](CCCNC(=N)N)C(=O)N[C@@H](CC(N)=O)C(=O)N[C@@H](CC(N)=O)C(=O)N[C@@H](Cc3ccccc3)C(=O)N[C@@H](CCCCNC(=O)CCCC(=O)O[C@H]3[C@H](O[C@@H]5c6cc7c(cc6[C@@H](c6cc(OC)c(O)c(OC)c6)[C@H]6C(=O)OC[C@@H]65)OCO7)O[C@@H]5CO[C@@H](C)O[C@H]5[C@@H]3O)C(=O)N[C@H](C(=O)N[C@@H](CCC(=O)O)C(=O)N[C@@H](CCC(=O)O)C(=O)N[C@@H](Cc3ccc(O)cc3)C(=O)O)[C@@H](C)O)[C@H]3COC(=O)[C@H]23)OCO4)cc(OC)c1O` [Etop-An2(3:1), ((2″-Glutaryl)-Etop)3-(Angiopep2)]?
Answer: concentration in the tissues studied versus unconjugated etoposide [5]: increased concentration in the tissues studied; Vd (slope) relative to the corresponding unconjugated drug (mouse brain [1]): higher; IC50 (SK-HEP-1 cells [2]; read-out: IC50 (nM) 24 hours, SK-HEP-1, 24 hours): 160 nM; IC50 (SK-HEP-1 cells [2]; read-out: IC50 (nM) 72 hours, SK-HEP-1, 72 hours): 52 nM; AUC0-∞ (hr°μg/mL) [6]: 82 hr°μg/mL; Elim. Rate Const. [6]: 1.6 h⁻¹; T1/2α [6]: 25.8 min; pIC50 (SK-HEP-1 cells [7]): 7.23; P-gp substrate status (P-gp): not a P-gp substrate; IC50 (U87 cells; U-87 Cells, 24 hours, read-out: IC50 (nM) 24 hours): 453 nM; IC50 (U87 cells; U-87 Cells, 48 hours, read-out: IC50 (nM) 48 hours): 151 nM; IC50 (U87 cells; U-87 Cells, 72 hours, read-out: IC50 (nM) 72 hours): 164 nM

Question: What does the source list for `COc1cc(C2c3cc4c(cc3[C@@H](O[C@@H]3O[C@@H]5CO[C@@H](C)O[C@H]5[C@H](O)[C@H]3O)[C@H]3COC(=O)[C@H]23)OCO4)cc(OC)c1OC(=O)CN(C)C` (stereo partly drawn) [EtopDMG, Etoposide 4′-Dimethylglycine]?
Answer: IC50 (SK-HEP-1 cells [2]; [10]): 62 nM; IC50 ([3]; Homo sapiens, NCI-H460): 90 nM; Brain Kin (mouse brain [8]): 9e-05 mL/s/g; IC50 (U87 cells; [11]): 145 nM

Question: With `COc1cc([C@@H]2c3cc4c(cc3[C@@H](O[C@@H]3O[C@@H]5CO[C@@H](C)O[C@H]5[C@H](O)[C@H]3O)[C@H]3COC(=O)[C@H]23)OCO4)cc(OC)c1O` [Etoposide] as the molecule, how does the IC50 (SK-HEP-1 cells [2]; Homo sapiens, SK-HEP1, 24 h, read-out: IC50 (nM) 24 hours) read?
Answer: 116 nM

Question: What about the IC50 (SK-HEP-1 cells [2]; Homo sapiens, SK-HEP1, 72 h, read-out: IC50 (nM) 72 hours) of the same molecule?
Answer: 50 nM

Question: What about the T1/2α [9] of the same molecule?
Answer: 7.8 min

Question: And the pIC50 (SK-HEP-1 cells [7])?
Answer: 7.25

Question: What about the IC50 (U87 cells; Homo sapiens, U-87 MG, U-87 Cells, 24 hours, read-out: IC50 (nM) 24 hours) of the same molecule?
Answer: 160 nM

Question: What about the IC50 (U87 cells; Homo sapiens, U-87 MG, U-87 Cells, 48 hours, read-out: IC50 (nM) 48 hours) of the same molecule?
Answer: 221 nM

Question: What about the IC50 (U87 cells; Homo sapiens, U-87 MG, U-87 Cells, 72 hours, read-out: IC50 (nM) 72 hours) of the same molecule?
Answer: 145 nM

Question: Which IC50 (SK-HEP-1 cells [2]; read-out: IC50 (nM) Hepatocarcinoma (SK-Hep-1), Table 5, incubation 48 to 72 hrs) does the source give for “(Etoposide-4′-Dimethylglycine-2″-Glutaric)3-Angiopep-2 Conjugate [EtopDMG-An2(3:1)]” here?
Answer: 48 nM

Question: And the IC50 [3]?
Answer: 148 nM

Question: What about the IC50 (U87 cells; Table 5, incubation 48 to 72 hrs, read-out: IC50 (nM) Glioblastoma (U87)) of the same molecule?
Answer: 330 nM
